According to patent US20110190307A1, “Assay” (priority 2008, published 2011):
Entries after “also recorded” stand apart in the source; their conditions may differ.

Legend:
[1] = tested on: motor axons in HB9:GFP embryos; experiment: primary screen paradigm: motor axons in HB9:GFP transgenic embryos; format: in vivo, zebrafish; settings: 24 hpf HB9:GFP embryos, compound applied at 6 hpf
Method: (§1) We use two transgenic lines, in which expression of green fluorescent protein (GFP) is controlled by the motor neuron specific promoters HB9 or islet-1 in the spinal cord. In the HB9:GFP line (Flanagan-Steet et al., 2005), primary motor neurons and their ventral axons are labelled at 24 hours post-fertilisation (hpf). Aberrations in the highly stereotypic pattern of primary motor axons are easily detectable in a stereo-microscope (FIG. 8). […] Thus, acceleration or delay of motor neuron differentiation can readily be assessed under a stereo-microscope.
(§2) Different small molecule libraries may be used for screening. […] Primary screen: Compounds are applied to HB9:GFP embryos in 24 well plates at a concentration of 10-25 μM in accordance with other studies (Zon and Peterson, 2005) at 6 hpf (mid-gastrula) and trajectories of motor axons analysed at 24 hpf. […] Missing, stunted, excessively branched or supernumerary motor axons (FIG. 8), which are easily detectable in a fluorescence-equipped stereo-microscope, are classified as hits. Apparently toxic substances will be re-evaluated at lower concentrations. […] The read-out of this screen is whether the rostro-caudal band of late born secondary motor neurons in the ventral spinal cord is complete. […] To do this, 20 embryos per treatment will be dechorionated, anesthetised (tricaine 1:10000) and analysed under a stereomicroscope. […]

[2] = tested on: islet-1:GFP+ motor neurons in the ventral spinal cord; experiment: secondary screen paradigm: motor neuron differentiation in islet-1:GFP transgenic embryos; format: in vivo, zebrafish
Method: as §1, §2

[3] = tested on: HB9:GFP+ motor neurons in the lesioned adult spinal cord; experiment: adult validation paradigm: motor neuron regeneration after spinal cord lesion; format: in vivo, zebrafish; settings: 2 weeks post-lesion; for number of newly generated motor neurons in HB9:GFP transgenic animals: within 1.5 mm surrounding the lesion site
Method: As described previously (Becker et al., 1997), fish were anesthetized by immersion in 0.033% aminobenzoic acid ethylmethylester (MS222; Sigma, St. Louis, Mo.) in PBS for 5 min. A longitudinal incision was made at the side of the fish to expose the vertebral column. The spinal cord was completely transected under visual control 4 mm caudal to the brainstem-spinal cord junction.
Stereological counts were performed in confocal image stacks of three randomly selected vibratome sections from the region up to 750 μm rostral to the lesion site and three sections from the region up to 750 μm caudal to the lesion site. Cell numbers were then calculated for the entire 1.5 mm surrounding the lesion site.
Different small molecule libraries may be used for screening. It is possible to screen the Spectrum Collection of FDA approved drugs and natural products and other bioactive components (2000 compounds), the Diversity Set of the US National Cancer Institute (1990 compounds), the Tocriscreen library (1120 compounds) and the Prestwick Chemical Library (1120 compounds). Due to some overlap between libraries, we will test approximately 5600 individual compounds. All of these libraries are commercially available. Primary screen: Compounds are applied to HB9:GFP embryos in 24 well plates at a concentration of 10-25 μM in accordance with other studies (Zon and Peterson, 2005) at 6 hpf (mid-gastrula) and trajectories of motor axons analysed at 24 hpf. Analysing 2-3 embryos per compound is sufficient, because the pattern of motor axon outgrowth is highly stereotypic, making this a robust and quick screening tool. No anaesthesia or other manipulations are necessary to observe primary motor axons. Missing, stunted, excessively branched or supernumerary motor axons (FIG. 8), which are easily detectable in a fluorescence-equipped stereo-microscope, are classified as hits. Apparently toxic substances will be re-evaluated at lower concentrations. Specificity of the effect will be established in dose-response experiments for each hit. Secondary screen: To exclude non-specific effects on motor axons due to gross alterations of the embryos occurring during early drug application, and to more directly analyse incipient differentiation of motor neurons, we use the islet-1:GFP fish. Hit compounds from the primary screen are applied at 24 hpf, when early embryogenesis is complete, but before islet-1:GFP+ motor neurons have been born. The read-out of this screen is whether the rostro-caudal band of late born secondary motor neurons in the ventral spinal cord is complete. […] To do this, 20 embryos per treatment will be dechorionated, anesthetised (tricaine 1:10000) and analysed under a stereomicroscope. […]

[4] = tested on: primary mammalian motor neurons; experiment: neuroprotective effect on primary mammalian motor neurons in culture under stress; format: cell-based; settings: 0.5 and 5 μM applied 1 hr before stressors (H2O2 and staurosporin), 24 hours, MAP-2 positive cells counted
Method: Neuroprotection is measured as a % of cells counted in each experimental condition to the number of control, untreated cells run at the same time on the same plate. NPA was applied 1 hr before stressors (H2O2 and staurosporin), at 2 concentrations: 0.5 and 5 μM. Stressors were applied for 24 hours, then plates were fixed and stained for MAP-2 and then positive cells counted.

**Q.** For `CC1=C2C[C@H]3[C@@H](CC=C4C[C@@H](O)CC[C@@]43C)[C@@H]2CC[C@]12O[C@@H]1C[C@H](C)CN[C@H]1[C@H]2C` [cyclopamine], which “absence of motor axons” value [1] is on record?
**A.** The value was “complete”.

**Q.** What about the “embryos with a complete band of differentiated motor neurons” value ([2]; 72 hpf, controls 82%, p<0.00001) of the same compound?
**A.** Its value is 11%.

**Q.** What about the “effect on motor neuron differentiation (in words)” value ([2]; islet-1:GFP embryos, compound applied at 24 hpf, read at 48 hpf and 72 hpf) of the same compound?
**A.** Its value is “blocks their differentiation; also recorded: retarded motor neuron differentiation”.

**Q.** What about the “reduction in the number of newly generated motor neurons” value ([3]; compared to tomatidine-injected animals) of the same compound?
**A.** The value was 50%.

**Q.** And the “number of newly generated motor neurons in HB9:GFP transgenic animals” value ([3]; intraperitoneal injection)?
**A.** The value was 377±45.7 cells.

**Q.** With `CCCN1CCc2cccc3c2[C@H]1Cc1ccc(O)c(O)c1-3.Cl` [NPA, R(−)-Propylnorapomorphine] as the compound, how does the “neuroprotection: number of neurons surviving stress conditions (% of untreated control cells)” value [4] read?
**A.** Its value is “significantly increases the number of mammalian neurons surviving stress conditions”.

**Q.** How did the “number of large motor neurons” value ([3]; intraperitoneal injection, p=0.0008) turn out when `C[C@H]1CC[C@]2(NC1)O[C@H]1C[C@H]3[C@@H]4CC[C@H]5C[C@@H](O)CC[C@]5(C)[C@H]4CC[C@]3(C)[C@H]1[C@@H]2C` [tomatidine] was run?
**A.** The value was 20±4.2.

**Q.** And the “number of newly generated motor neurons in HB9:GFP transgenic animals” value ([3]; intraperitoneal injection)?
**A.** Its value is 747±42.2 cells.
